Data set [1] can be described thus: Solubility study of the Steroid in water / aqueous cyclodextrin solutions (phase-solubility, UV/VIS). The format is physicochemical. The method, then: The solubility studies were performed according to the method described below which is well known in the litrature. Excess amounts of the Steroid were added to aqueous solutions of 2,6-dimethyl-β-cyclodextrin. These suspensions were shaken at room temperature during 5 days followed by an equilibration period of 3 days at room temperature. Then an aliquot was centrifuged and the supernatant was filtered through a 0,45 µm membrane filter (Millipore: HV4, Millex). The samples were analysed with the Perkin Elmer Lambda 5 UV/VIS spectrophotometer. The absorbance was read and compared with a blanc and standard calibration curve. […] After calculation of the amount of Steroid dissolved, a phase-solubility diagram was constructed by plotting the dissolved amounts of Steroid as a function of the concentration of 2,6-dimethyl-β-cyclodextrin (see Graph).
For comparative purposes the unexpected increase of solubility of the Steroid in water using 2,6-dimethyl-β-cyclodextrin, is compared with other more common cyclodextrins.

Data set [2] in a line: Intra ocular pressure on application to the eyes. The format is in vivo. The following applies: applied to the eyes; contrary to other corticosteroids.
Data set [3] in a line: Systemic effect after local administration. It counts as in vivo. The following applies: administered locally.

Values after ≈ are worked out from the molar mass of the structure shown. Read-outs that look alike come from different tables or passages of the source.

In the case of `CCC(=O)[C@@]1(C)[C@H](C)C[C@H]2[C@@H]3CCC4=CC(=O)C=C[C@]4(C)[C@H]3[C@@H](O)C[C@@]21C` [Org 6216, 11β-hydroxy-16α,17α,21-trimethyl-▲¹ʼ⁴-pregnadiene-3,20-dione], the “increase of the solubility (factor)” value in data set [1] stood at 10.000. For the same compound, the solubility was 9000 µg/mL (≈ 24300 µM) in data set [1] (water with 2,6-dimethyl-β-cyclodextrin, in water with 2,6-dimethyl-β-cyclodextrin, room temperature, read-out: Solubility); 40 µg/mL (≈ 108 µM) in data set [1] (water with α-cyclodextrin, in water with α-cyclodextrin, room temperature, read-out: Solubility); 50 µg/mL (≈ 135 µM) in data set [1] (water with β-cyclodextrin, in water with β-cylodextrin, room temperature, read-out: Solubility); 70 µg/mL (≈ 189 µM) in data set [1] (water with τ-cyclodextrin, in water with τ-cyclodextrin, room temperature, read-out: Solubility); 9000 to 10000 µg/mL (≈ 24300 to 27000 µM) in data set [1] (water, 2,6-dimethyl-beta-cyclodextrin, 2,6-dimethyl-β-cyclodextrin as solubilizing agent, about 0,28 millimol per ml, read-out: maximal solubility of the Steroid in water); around 10000 µg/mL (≈ 27000 µM) in data set [1] (water, 2,6-dimethyl-beta-cyclodextrin, inclusion complex with 2,6-dimethyl-β-cyclodextrin, read-out: solubility of the Steroid in water). Moreover, the solubility in data set [1] (water, no cyclodextrin, read-out: Solubility without cyclodextrin) is 0.7 µg/mL (≈ 1.89 µM); in data set [1] (water, no cyclodextrin, read-out: original solubility in water), 0.5 µg/mL (≈ 1.35 µM). Further, the “increase of the intra ocular pressure (I.O.P.)” value in data set [2] is “did not increase I.O.P”. Moreover, in data set [3], the systemic effect result was “did not expose any significant systemic effect”.

The solubility is how much of the substance goes into solution per volume.

Source of the values: patent publication EP0326196A2, “Aqueous pharmaceutical preparation” (AKZO N.V., priority 1988, dated 1989).
